In patent publication US20080319175A1, “Transthyretin Stabilization” (The Scripps Research Institute, priority 2004, published 2008):

Tests used:
WT-TTR [1] = biological target: T1, WT-TTR (Homo sapiens, UniProt P02766); experiment: time course analysis of WT-TTR fibril formation inhibition (turbidity at 500 nm); assay type: biochemical; conditions: WT-TTR 3.6 μM; for TTR amyloidogenesis mediated by partial acidification relative to control: inhibitor 7.2 and 3.6 μM, pH 4.4
T1 construct: made in house
Text: (§1) The ability of these inhibitors to impose kinetic stability on tetrameric TTR is best evaluated by assessing the rate of TTR tetramer dissociation (Hammarstrom, P.; et al. Science 2003, 299, 713-716; Hammarstrom, P.; et al. Proc. Natl. Acad. Sci. USA 2002, 99, 16427-16432). Under acidic conditions tetramer dissociation leads to amyloidogenesis, whereas in the presence of chaotropes (6M urea), tetramer dissociation leads to monomer unfolding. The influence of inhibitors 25, 47 and 64, representing the three structural classes of dibenzofuran-based inhibitors, on the rates of tetramer dissociation under acid- and urea-mediated denaturing conditions was probed. […] The rate of TTR tetramer dissociation in 6M urea is easily monitored by linking the slow quaternary structural changes to rapid tertiary structural changes that are easily monitored by spectroscopic methods (Hammarstrom, P.; et al. Proc. Natl. Acad. Sci. USA 2002, 99, 16427-16432).
Time course analysis of WT-TTR fibril formation inhibition by compounds 25, 47, and 64. Compounds 25, 47, and 64 were dissolved in DMSO to provide 7.2 mM primary stock solutions (10× stocks), from which 5- and 10-fold DMSO dilutions yielded 1.44 mM (2×) and 0.72 mM (1×) secondary stock solutions, respectively. 495 μL of 0.4 mg/mL (7.2 μM) WT-TTR solution (10 mM sodium phosphate, 100 mM KCl, and 1 mM EDTA, pH 7.2), and 5 μL of either the 1.44 or 0.72 mM inhibitor secondary stock solutions were added to disposable UV cuvettes, vortexed briefly, then incubated for 30 min at 25° C. The pH was then adjusted to 4.4 with addition of 500 μL of acidic buffer (100 mM acetate, 100 mM KCl, 1 mM EDTA, pH 4.2), and the final 1 mL solutions were vortexed again and incubated in the dark at 37° C. without agitation. At 0, 4, 8, 12, 25, 49, 74, 100, 122, 145, and 169 h time points after acidification, the solutions were vortexed and the turbidity at 500 nm was measured. Control samples containing 5 μL of pure DMSO were prepared and analyzed as above for comparison. Small molecule and TTR control samples were prepared in groups of 10 to prevent disturbance of the cuvettes during incubation. Samples were discarded after their turbidities were measured.
FIG. 10 is a plot of the timecourse analysis of WT-TTR (3.6 μM) fibril formation mediated by partial acid denaturation in the absence (▴) and presence of 7.2 μM (⋄) and 3.6 μM (∘) inhibitors 25, 47, and 64, as measured by turbidity at 500 nm (see color scheme within Figure to differentiate inhibitors). It is hard to discern which compound is most efficacious in the black and white plot.

WT-TTR [2] = biological target: T1, WT-TTR; experiment: time course analysis of WT-TTR tetramer dissociation in urea (far-UV CD); assay type: biochemical; conditions: for rate of TTR tetramer dissociation monitored by far-UV CD: 6M urea, TTR 3.6 μM, inhibitor 7.2 and 3.6 μM; for rank in tetramer dissociation time course at the end of the plot: after 169 hours, 6.0 M urea, WT-TTR 3.6 μM
Text: as §1
Time course analysis of WT-TTR tetramer dissociation inhibition by compounds 25, 47, and 64 evaluated by linked-monomer unfolding in urea. Compounds 25, 47, and 64 were dissolved in DMSO to provide 10 mM primary stock solutions, from which 10-fold EtOH dilutions yielded 1 mM secondary stock solutions. 200 μL of 1.0 mg/mL (18 μM) WT-TTR solution (50 mM sodium phosphate, 100 mM KCl, and 1 mM EDTA, pH 7.2), and either 7.2 or 3.6 μL (2× and 1×, respectively) of 1 mM inhibitor secondary stock solutions were added to 2 mL eppendorf tubes, vortexed briefly, and incubated for 15 min at 25° C. 100 μL of the TTR•inhibitor solutions were added to 900 μL of urea buffer (6.67 M urea, 50 mM sodium phosphate, 100 mM KCl, 1 mM EDTA, pH 7.2), and the final 1 mL solutions were vortexed again and incubated in the dark at 25° C. without agitation. At 0, 4, 11, 24, 49, 73, 97, 122, 146, and 170 h time points after mixing with urea, the circular dichroism spectra were measured between […], with scanning every 0.5 nm and averaging for 5 s. After measurements were taken, samples were returned to their respective eppendorf tubes and incubation was continued. Control samples containing 7.2 μL of 10% DMSO in EtOH were prepared and analyzed as above for comparison. The CD amplitude values were averaged between 215 and 218 nm to determine the extent of β-sheet loss throughout the experiment. TTR tetramer dissociation is linked to the rapid (˜500,000× faster) monomer denaturation as measured through this β-sheet loss (Hammarstrom, P.; et al. Proc. Natl. Acad. Sci. USA 2002, 99, 16427-16432).
FIG. 11 is a plot of the timecourse analysis of WT-TTR (3.6 μM) tetramer dissociation (6.0 M urea) in the absence (▴) and presence of 7.2 μM (⋄) and 3.6 μM (∘) concentrations of inhibitors 25, 47, and 64 (see color scheme within Figure to differentiate inhibitors). Slow tetramer dissociation is not detectable by far-UV CD spectroscopy, but this process is linked to rapid (˜500,000× faster) monomer denaturation as monitored by loss of β-sheet content easily followed by circular dichroism spectroscopy. It is hard to discern which compound is most efficacious in the black and white plot.

[3] = precipitation of small molecule under acid-mediated amyloidogenic conditions in the absence of TTR; assay type: physicochemical; conditions: 3.6 μM, pH 4.4, 37° C., 72 h
Description: TTR amyloid inhibition efficacy was probed using a stagnant fibril formation assay described previously, wherein partial denaturation was triggered by acidification (pH 4.4, 37° C.) (Colon, W.; Kelly, J. W. Biochemistry 1992, 31, 8654-8660). Briefly, a test compound (7.2 or 3.6 μM) is incubated with TTR (3.6 μM) for 30 min in pH 7 buffer. Amyloidogenesis is then initiated by lowering to pH 4.4, where maximal fibril formation is observed with WT-TTR after 72 h (37° C.). The turbidity in the presence of a potential inhibitor (Ttest) is compared to that of a solution lacking a test compound (Tcontrol). […] From experience we know that excellent inhibitors allow <10% fibril formation at a small molecule concentration of 7.2 μM and <40% fibril formation at a concentration equal to that of WT-TTR (3.6 μM) (Hammarstrom, P.; et al. Science 2003, 299, 713-716; Klabunde, T.; et al. Nature Struct. Biol. 2000, 7, 312-321; Razavi, H.; et al. Angew Chem 2003, 42, 2758-2761; Miroy, G. J.; et al. Proc. Natl. Acad. Sci. USA 1996, 93, 15051-15056; Peterson, S. A.; et al. Proc. Natl. Acad. Sci. USA 1998, 95, 12956-12960; Baures, P. W.; et al. Bioorg. Med. Chem. 1998, 6, 1389-1401; Baures, P. W.; et al. Bioorg. Med. Chem. 1999, 7, 1339-1347; Petrassi, H. M.; et al. J. Am. Chem. Soc. 2000, 122, 2178-2192; McCammon, M. G.; et al. Structure 2002, 10, 851-863; Oza, V. B.; et al. J. Med. Chem. 2002, 45, 321-332; Sacchettini, J. C.; et al. Nature Rev. Drug Disc. 2002, 1, 267-275; Green, N. S.; et al. J. Am. Chem. Soc. 2003, 125, 13404-13414; Adamski-Werner, S. L.; et al. J. Med. Chem. 2004, 47, 355-374; Miller Sean, R.; et al. Lab. Inv. 2004, 84, 545-552). […] Therefore, when both the ligand and TTR are at equal concentrations, a population of TTR•I, TTR•I2 and unliganded TTR is observed, dictated by the dissociation constants. It is now established by other studies that inhibitor occupancy of only one of the two TTR binding sites is sufficient to stabilize the entire tetramer against amyloidogenesis (Wiseman, R. L.; et al. J. Am. Chem. Soc. 2005, in press). This is further supported by the observation herein that twenty-six of these dibenzofurans are excellent TTR amyloidogenesis inhibitors (<40% fibril formation) at a concentration equal to that of TTR (3.6 μM each, FIG. 3).

SMILES	TTR amyloidogenesis mediated by partial acidification relative to control (WT-TTR [1])	rate of TTR tetramer dissociation monitored by far-UV CD (WT-TTR [2])	rank in tetramer dissociation time course at the end of the plot (WT-TTR [2])	precipitation of compound in the absence of TTR [3]	rank by fibrils formed at the end of the time course (WT-TTR [1]; after 169 hours, partial acid denaturation)
O=C(O)c1cccc2c1oc1c(C(=O)O)ccc(Nc3ccccc3C(F)(F)F)c12 [Compound 25]	dramatically slowed in a dose-dependent fashion	markedly slowed in a dose-dependent fashion	most effective in dissociating tetramers	no measurable precipitation	–
O=C(O)c1cccc2c1oc1c(C(=O)O)ccc(-c3cc(C(F)(F)F)cc(C(F)(F)F)c3)c12 [Compound 64]	dramatically slowed in a dose-dependent fashion	markedly slowed in a dose-dependent fashion	followed by compound 64	–	–
O=C(O)c1cccc2c1oc1c(C(=O)O)ccc(Oc3cc(Cl)cc(Cl)c3)c12 [Compound 47]	dramatically slowed in a dose-dependent fashion	markedly slowed in a dose-dependent fashion	–	no measurable precipitation	shows the most fibrils formed
